SMILES strings stand for the structures.

One may read the Emax as the maximal effect, on the per cent scale that the assay sets. Usually EC50 stands for the midpoint of the concentration-response curve.

The target of the assay is T1, Kv7.2 (Homo sapiens, UniProt O43526).
T1 construct: expressed in transfected cells
The experiment in a line: Activation of Kv7.2 (in vitro assay, concentration response curve). Conditions: for Emax: Kv7.2 activation max %; for EC50: activation of Kv7.2. It is filed as cell-based. The procedure, abridged:
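Agonist activity was measured in vitro across a range of compound concentrations and plotted as a sigmoidal concentration–response curve. EC50 is the concentration giving 50% of that compound's own maximal response (Emax).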

The compound `CC1CC(NC(=O)NCc2ccnc(OC(F)F)c2)C1` (stereo not shown) [Example 65, 1-[[2-(difluoromethoxy)pyridin-4-yl]methyl]-3-(3-methylcyclobutyl)urea] displayed a maximal response (Emax) of 76% and a half-maximal effective concentration (EC50) of 450 nM.
In the same order, the values of `C#CC1CC(NC(=O)NCc2ccnc(OC(F)F)c2)C1` (stereo not shown) [Example 66, 1-[[2-(difluoromethoxy)pyridin-4-yl]methyl]-3-(3-ethynylcyclobutyl) urea] are 56% and 530 nM.
For `O=C(NCc1ccnc(OC(F)F)c1)N[C@H]1C[C@H](F)C1` [Example 67, 1-[[2-(difluoromethoxy)pyridin-4-yl]methyl]-3-((1r,3r)-3-fluorocyclobutyl)urea], in that order: 52% and 1870 nM.
For `O=C(NCc1ccnc(OC(F)F)c1)NC12CCC(C(F)(F)F)(CC1)CC2` [Example 68, 1-[[2-(difluoromethoxy)pyridin-4-yl]methyl]-3-[4-(trifluoromethyl)-1-bicyclo[2.2.2]octanyl]urea], in that order: 66% and 2550 nM.
Compound `O=C(NCc1ccnc(OCC(F)(F)F)c1)NCC1CC(C(F)(F)F)C1` (stereo not shown) [Example 71, 1-[[2-(2,2,2-trifluoroethoxy)pyridin-4-yl]methyl]-3-[[3-(trifluoromethyl)cyclobutyl]methyl]urea] registered a maximum response (Emax) of 53% and an EC50 of 230 nM.
In the same order, the values of `O=C(NCc1ccnc(OCC(F)(F)F)c1)NCC12CC(F)(C1)C2` [Example 75, 1-[(3-fluoro-1-bicyclo[1.1.1]pentanyl)methyl]-3-[[2-(2,2,2-trifluoroethoxy)pyridin-4-yl]methyl]urea] are 40% and 600 nM.
For `O=C(NCc1ccnc(OC(F)F)c1)N[C@@H]1CC[C@H]2CCC[C@H]21` [Example 76, 1-[(1R,3aR,6aR)-1,2,3,3a,4,5,6,6a-octahydropentalen-1-yl]-3-[[2-(difluoromethoxy)pyridin-4-yl]methyl]urea], in that order: 79% and 20 nM.
For `O=C(NCc1ccnc(OC(F)F)c1)NC1CC(C2CC2)C1` (stereo not shown) [Example 77, 1-(3-cyclopropylcyclobutyl)-3-[[2-(difluoromethoxy)pyridin-4-yl]methyl]urea], in that order: 62% and 90 nM.
The compound `O=C(NCc1ccnc(OC(F)F)c1)NC1CC2CCCC2C1` (stereo not shown) [Example 78, 1-(1,2,3,3a,4,5,6,6a-octahydropentalen-2-yl)-3-[[2-(difluoromethoxy)pyridin-4-yl]methyl]urea] showed a maximum response (Emax) of 62% and a half-maximal effective concentration (EC50) of 20 nM.
Take `O=C(NCc1ccnc(OC(F)F)c1)NC12CCC(F)(CC1)CC2O` (stereo not shown) [Example 82, 1-[[2-(difluoromethoxy)pyridin-4-yl]methyl]-3-(4-fluoro-2-hydroxy-1-bicyclo[2.2.2]octanyl)urea]: the maximum response (Emax) was 48% and the concentration for a half-maximal effect (EC50) worked out at 1030 nM.
On to `COc1cccc(NC(=O)NCc2ccnc(OC(F)F)c2)c1` [Example 83, 1-[[2-(difluoromethoxy)pyridin-4-yl]methyl]-3-(3-methoxyphenyl)urea], for which the Emax is 45% and the midpoint of the response, the EC50, lay at 2470 nM.
In the same order, the values of `O=C(NCc1ccnc(OC(F)F)c1)Nc1cccc(Cl)n1` [Example 84, 1-(6-chloropyridin-2-yl)-3-[[2-(difluoromethoxy)pyridin-4-yl]methyl]urea] are 42% and 210 nM.
In turn, `O=C(NC(CO)c1ccnc(OC(F)F)c1)NC12CCC(F)(CC1)CC2` (stereo not shown) [Example 85, 1-[1-[2-(difluoromethoxy)pyridin-4-yl]-2-hydroxyethyl]-3-(4-fluoro-1-bicyclo[2.2.2]octanyl)urea] returned an Emax of 74% and an EC50 of 420 nM.
In the same order, the values of `O=C(NCc1ccnc(OC(F)F)c1)NC[C@H]1C[C@@H](C(F)(F)F)C1` [Example 87, 1-[[2-(difluoromethoxy)pyridin-4-yl]methyl]-3-[[3-(1r,3r)-(trifluoromethyl)cyclobutyl]methyl]urea] are 40% and 850 nM.
For `CC(F)COc1cc(CNC(=O)NC23CCC(F)(CC2)CC3)ccn1` (stereo not shown) [Example 88, 1-(4-fluoro-1-bicyclo[2.2.2]octanyl)-3-[[2-(2-fluoropropoxy)pyridin-4-yl]methyl]urea], in that order: 43% and 440 nM.
For `O=C(NCc1ccnc(OC(F)F)c1)NCC1CC(F)C1` (stereo not shown) [Example 89, 1-[[2-(difluoromethoxy)pyridin-4-yl]methyl]-3-[(3-fluorocyclobutyl)methyl]urea], in that order: 46% and 1040 nM.
`O=C(NCc1ccnc(OC(F)F)c1)NC1CCC(F)(F)CC1` [Example 90, 1-(4,4-difluorocyclohexyl)-3-[[2-(difluoromethoxy)pyridin-4-yl]methyl]urea] showed a maximal effect (Emax) of 62% and an EC50 of 180 nM.
In the same order, the values of `O=C(NC(CO)c1ccnc(OC(F)F)c1)N[C@H]1C[C@H](C(F)(F)F)C1` (stereo partly shown) [Example 91, 1-[1-[2-(difluoromethoxy)pyridin-4-yl]-2-hydroxyethyl]-3-[(1r,3r)-3-(trifluoromethyl)cyclobutyl]urea] are 82% and 1260 nM.
In the same order, the values of `O=C(Nc1cccc(Cl)c1)NC(CO)c1ccnc(OCC(F)(F)F)c1` (stereo not shown) [Example 92, 1-(3-chlorophenyl)-3-[2-hydroxy-1-[2-(2,2,2-trifluoroethoxy)pyridin-4-yl]ethyl]urea] are 64% and 180 nM.
In the same order, the values of `O=C(NCc1ccnc(OC(F)F)c1)NC1CCC(F)(F)C1` (stereo not shown) [Example 93, 1-(3,3-difluorocyclopentyl)-3-[[2-(difluoromethoxy)pyridin-4-yl]methyl]urea] are 56% and 450 nM.
`CC(C)(C)C(O)CNC(=O)NCc1ccnc(OC(F)F)c1` (stereo not shown) [Example 95, 1-[[2-(difluoromethoxy)pyridin-4-yl]methyl]-3-(2-hydroxy-3,3-dimethylbutyl)urea] returned an Emax of 43% and an EC50 of 1160 nM.
For `O=C(NCc1ccnc(OC(F)F)c1)Nc1nccc(Cl)n1` [Example 96, 1-(4-chloropyrimidin-2-yl)-3-[[2-(difluoromethoxy)pyridin-4-yl]methyl]urea], in that order: 85% and 7220 nM.
For `O=C(Nc1cccc(Cl)c1)NC(CO)c1ccnc(OC(F)F)c1` (stereo not shown) [Example 97, 1-(3-chlorophenyl)-3-[1-[2-(difluoromethoxy)pyridin-4-yl]-2-hydroxyethyl]urea], in that order: 55% and 80 nM.
`O=C(NCc1ccnc(OC(F)F)c1)Nc1cncc(Cl)n1` [Example 98, 1-(6-chloropyrazin-2-yl)-3-[[2-(difluoromethoxy)pyridin-4-yl]methyl]urea] came in with an Emax of 48% and an EC50 of 810 nM.
In the same order, the values of `O=C(NCc1ccnc(OC(F)F)c1)N[C@H]1C[C@](O)(C(F)(F)F)C1` [Example 100, 1-[[2-(difluoromethoxy)pyridin-4-yl]methyl]-3-[(1s,3s)-3-hydroxy-3-(trifluoromethyl)cyclobutyl]urea] are 40% and 3660 nM.
In the same order, the values of `O=C(NCc1ccnc(OC(F)F)c1)N[C@H]1CC[C@@H]2CCC[C@@H]21` [Example 103, 1-[(1S,3aS,6aS)-1,2,3,3a,4,5,6,6a-octahydropentalen-1-yl]-3-[[2-(difluoromethoxy)pyridin-4-yl]methyl]urea] are 71% and 30 nM.
In the case of `O=C(NCc1ccnc(OC(F)F)c1)N[C@H]1C[C@H]2CCC[C@H]2C1` [Example 105], the maximal response (Emax) turned out to be 78% and the response was half-maximal at 40 nM (EC50).
For `O=C(NCc1ccnc(OC(F)F)c1)NC(C1CC1)C(F)(F)F` (stereo not shown) [Example 106, 1-(1-cyclopropyl-2,2,2-trifluoroethyl)-3-[[2-(difluoromethoxy)pyridin-4-yl]methyl]urea], in that order: 47% and 820 nM.
In the same order, the values of `O=C(NCc1ccnc(OC(F)F)c1)NC1CC(F)(F)C1` [Example 108, 1-(3,3-difluorocyclobutyl)-3-[[2-(difluoromethoxy)pyridin-4-yl]methyl]urea] are 51% and 2080 nM.
The compound `CC(C)(C)CCNC(=O)NCc1ccnc(OC(F)F)c1` [Example 109, 1-[[2-(difluoromethoxy)pyridin-4-yl]methyl]-3-(3,3-dimethylbutyl)urea] showed an Emax of 51% and an EC50 of 300 nM.
For `O=C(NCc1ccnc(OC(F)F)c1)NC1(CC(F)(F)F)CC1` [Example 110, 1-[[2-(difluoromethoxy)pyridin-4-yl]methyl]-3-[1-(2,2,2-trifluoroethyl)cyclopropyl]urea], in that order: 40% and 1230 nM.
In the same order, the values of `O=C(NCc1ccnc(OC(F)F)c1)NC1CCCC1(F)F` (stereo not shown) [Example 113, 1-(2,2-difluorocyclopentyl)-3-[[2-(difluoromethoxy)pyridin-4-yl]methyl]urea] are 77% and 3490 nM.
Take `O=C(NCc1ccnc(OC(F)F)c1)NN1CC2CCCC2C1` (stereo not shown) [Example 114, 1-(3,3a,4,5,6,6a-hexahydro-1H-cyclopenta[c]pyrrol-2-yl)-3-[[2-(difluoromethoxy)pyridin-4-yl]methyl]urea]: the Emax was found to be 68% and the midpoint of the response, the EC50, lay at 7430 nM.
`O=C(NCc1ccnc(OC(F)F)c1)N[C@@H]1CCC(F)(F)C1` [Example 115, 1-[(1R)-3,3-difluorocyclopentyl]-3-[[2-(difluoromethoxy)pyridin-4-yl]methyl]urea] yielded an Emax of 48% and a concentration giving a half-maximal response (EC50) of 330 nM.
`O=C(NCc1ccnc(OC(F)F)c1)N[C@H]1CCC(F)(F)C1` [Example 116, 1-[(1S)-3,3-difluorocyclopentyl]-3-[[2-(difluoromethoxy)pyridin-4-yl]methyl]urea] had a maximum response (Emax) of 58% and a concentration giving a half-maximal response (EC50) of 320 nM.

Values taken from patent US20250074901A1, “NOVEL HETEROARYL COMPOUNDS” (ICAGEN, LLC, priority 2021, published 2025).
